The values that follow come from patent US20240207221A1, “TREATMENT OF HYPERAMMONEMIA” (BIOCODEX, priority 2021, published 2024).

Holding throughout (assay type): in vivo
For assay [1], the system named is methionine sulfoximine (MSO)-induced hyperammonemia. Conditions: for ammonemia: mean ± MSE. The protocol:
(§1) Appl. Neurobiol. 11: 129-139, as follows.
(§2) Male CBA mice (Janvier) weighing between 23 and 27 grams are used after acclimatization for at least 4 days in the animal house (t°=22±2° C.; housing conditions are as follows: SAFE “A04” food; drinking water: tap water; nycthemeral cycle: 12 h/12 h (light: 7 h/19 h-dark: 19 h/7 h)).
(§3) On test day, mice are weighed, marked and placed in individual cages. At t ═O minutes, MSO (0.1 mL/10 g) is administered intraperitoneally, and the mice are carefully observed for 8 hours.
(§4) Stiripentol (0.1 mL/10 g) is administered intraperitoneally at different times with respect to MSO.
Results are expressed as the mean value±MSE.

Assay [2] concerns methionine sulfoximine (MSO)-induced convulsions. As for the experimental part:
as §1, §2
On reception, mice are grouped in batches of 8 to 10 in 1500 U cages (floor area 1500 cm2) with bedding and sizzle dry (SDS) enrichment, in line with the ethical recommendations of European Parliament Directive 2010/63/EU (Sep. 22, 2010).
as §3
The parameters evaluated are the general condition of the animals, according to the Irwin grid (Irwin 1968), the number of convulsions, their onset times and mortality. Animals are euthanized as soon as limit points are reached, or at the end of the 8-hour observation period, according to the ANI07 procedure approved by the Ethics Committee.
as §4
Stiripentol (batch 176) was suspended in 5% (v/v) Tween 80 and 0.9% NaCl.
Results are expressed as the mean value±MSE. The statistical tests used are: • Fisher's exact test for percentages of convulsions and mortality, to determine a significant difference between groups at the 5% threshold, • A one-factor analysis of variance for the assays, to determine whether the pharmacological effect observed is significant at the 5% level (SigmaPlot 3.1 software).
Appl. Neurobiol. 11: 129-139.

Another assay relates to ammonia. The assay can be described thus: Specific effect of stiripentol on ammonemia (without MSO), ABCAM ammonia assay kit. Particulars: stiripentol 300 mg/kg intraperitoneally without methionine sulfoximine, mice. As for the experimental part: Blood is collected under isoflurane anesthesia by cardiac puncture (0.5 to 1.0 mL per mouse) to determine ammonia levels. In the case of brain and blood sampling, the mouse is rapidly sacrificed by decapitation: the brain is removed and frozen in liquid nitrogen. The liver can then be removed and rapidly frozen in liquid nitrogen. Samples are stored at −80° C.
Stiripentol (0.1 mL/10 g) is administered intraperitoneally at different times with respect to MSO. […]
Ammonia is determined colorimetrically using a microplate reader (Dynex, model MRX), and an ABCAM kit (ref AB83360, ammonia assay kit) containing several reagents. This kit enables quantitative enzymatic determination of ammonium present in the samples. During the assay, ammonium is converted to a product that reacts with the OxiRed probe for quantification at 570 nm using a microplate reader. […] The kit, stored at −20° C., includes the following components: • Ammonia assay buffer (25 mL): ready to use, bring to room temperature before use; • OxiRed probe (200 μL): ready to use, warm to 37° ° C. to thaw DMSO; • Developer (1 vial): reconstitute with 220 μL of Ammonia assay buffer; • enzyme Mix (1 vial): reconstitute with 220 μL of Ammonia assay buffer; • Converting Enzyme (1 vial): reconstitute with 220 μl of Ammonia assay buffer, • 10 mM NH4Cl standard (100 μL): ready to use, keep on ice during use. […]

Setting [3] is: stiripentol 300 mg/kg intraperitoneally, mice (conclusion).
Setting [4] is: 300 mg/kg stiripentol intraperitoneally 30 minutes prior to 50 mg/kg MSO.
[5] abbreviates: 300 mg/kg stiripentol intraperitoneally just prior to 50 mg/kg MSO.

The structures appear in SMILES notation. Where two headings read alike, the source gives them in different places.

Regarding `CC(C)(C)C(O)/C=C/c1ccc2c(c1)OCO2` (stereo not drawn) [stiripentol], the ammonemia was found to be 448 ± 65 µM in assay [1] (300 mg/kg stiripentol 30 minutes prior to 50 mg/kg MSO (FIG. 1)); 417 ± 51 µM in assay [1] (300 mg/kg stiripentol just prior to 50 mg/kg MSO); 176 ± 14 µM with ammonia (plasma, mean ± MSE). The reduction of hyperammonemia in assay [1] (300 mg/kg stiripentol 30 minutes prior to 50 mg/kg MSO, compared with the MSO-only group) stood at 41%; in assay [1] (300 mg/kg stiripentol just prior to 50 mg/kg MSO, versus MSO only), 32%. The “effect on MSO-induced hyperammonemia” value in assay [1] (setting [3]) is listed as “significantly reduces”. Moreover, the convulsion rate amounted to 45% in assay [2] (setting [4]) and 50% in assay [2] (setting [5]). Also, the mortality rate in assay [2] (setting [4]) and in assay [2] (setting [5]) was 25% each time. Besides, the “effect on methionine sulfoximine-induced convulsions and mortality” value in assay [2] (setting [3]) was “significantly reduces”. In the assay with ammonia, the “effect on ammonemia compared with the control group” value is on record as “did not alter ammonemia”.
